Experimental data as given in article PMC9951879, “Synthesis of New Shogaol Analogues as NRF2 Activators and Evaluation of Their Anti-Inflammatory Activity, Modes of Action and Metabolic Stability” (Antioxidants, 2023).

Experiments:
Type in all cases: cell-based, mouse
Details in all cases: 1 μM, 48 h, Hepa-1c1c7 cells
TXNRD1 = experiment: qPCR gene expression in Hepa1c1c-7 cells: TXNRD1
Procedure: (§1) Hepa1c1c-7 cells were treated with STCs (1 μM) for 48 h, and the total RNA was isolated using QIAzol®lysis reagent (Qiagen, Germany). Next, cDNA was synthesised using the ReverTra Ace® qPCR RT Master Mix Kit (Toyobo Research Reagents, Osaka, Japan). Quantitative PCR was performed using THUNDERBIRD^TM Next SYBR® qPCR Mix (Toyobo Research Reagents, Osaka, Japan) in CFX96 Touch Real-Time PCR Detection System (Bio-Rad Laboratories, San Jose, CA, USA). The genes tested and the respective primers (purchased from Integrated DNA Technologies, Coralville, IA, USA) used in the study are shown in Table 1. β-actin was used as a reference gene for the normalisation of target gene expression. The 2^−ΔΔCt method was used to measure the relative expression of target genes.

HMOX1 = experiment: qPCR gene expression in Hepa1c1c-7 cells: HMOX1
Procedure: as §1

PRDX1 = experiment: qPCR gene expression in Hepa1c1c-7 cells: PRDX1
Procedure: as §1

Structure (SMILES): CCCCC/C=C/C(=O)CCc1ccc(O)c(OC)c1 [6-shogaol, reference compound]
- TXNRD1 gene expression foldchange (compared to control) (TXNRD1): 1.20 ± 0.08
- HMOX1 gene expression foldchange (compared to control) (HMOX1): 1.34 ± 0.05
- PRDX1 gene expression foldchange (compared to control) (PRDX1): 1.37 ± 0.07

Structure (SMILES): COc1cc(CCC(=O)/C=C/c2cc(-c3ccccc3)cs2)ccc1O [STC5, (E)-5-(4-Hydroxy-3-methoxyphenyl)-1-(4-phenylthiophen-2-yl)pent-1-en-3-one]
- TXNRD1 gene expression foldchange (compared to control) (TXNRD1): 2.52 ± 0.06
- HMOX1 gene expression foldchange (compared to control) (HMOX1): 3.01 ± 0.10
- PRDX1 gene expression foldchange (compared to control) (PRDX1): 3.04 ± 0.09
